Laboratory results: patent publication US20080300298A1, “Honokiol Derivates For the Treatment of Proliferative Disorders” (priority 2005, published 2008)
Like-named read-outs stand apart in the source and are kept apart here.

Experiments:
[1] = system: SVR (a transformed endothelial cell line); assay: SVR cellular proliferation assay; assay type: cell-based; settings: Mus musculus, SVR cells; for inhibition at 10 µg/mL: 10 μg/mL; for inhibition at 15 µg/mL: 15 μg/mL
Procedure: The SVR (a transformed endothelial cell line) proliferation assay can be used as a direct measure of antiangiogenic and antitumor activity. This assay serves as a high throughput screen that compares the effects of a compound on proliferation of SVR cells versus an immortalized endothelial cell line, MS1. […] SVR cells were plated in 24-well dishes. The next day, the medium was replaced with fresh medium containing the inhibitors or vehicle controls. Cells were incubated at 37° C. for 72 h (Arbiser, J. L., et al. 1999 J. Am. Acad. Dermatol. 40, 925-929; LaMontagne, K. R., et al. 2000 Am. J. Pathol. 157, 1937-1945), and cell number was determined in triplicate using a Coulter Counter (Hialeah, Fla.). Immortalized and K-Ras transformed rat epithelial cells (RIEpZip and […]) and fibroblasts (NIH3T3 pZip and NIH3T3 pZipK-Ras12V) were maintained at 37° C., 10% CO2, in Dulbecco's modified Eagle's medium supplemented with 5% fetal calf serum (RIE) or 10% calf serum (NIH3T3) (Oldham, S. M., et al. 1996 Proc. Natl. Acad. Sci. U.S.A. 93, 6924-6928; Pruitt, K., et al. 2000 J. Biol. Chem. 275, 40916-40924). Cells were plated at 10^5/well in six-well plates.

[2] = toxicity in mice (Table 5); settings: mouse, in vivo
Text: In vivo models of cancer growth include xenografts of human tumor cells injected into animals, such as mice, particularly immunocomprimised mice. Toxicity of the compounds can also be assessed in these assays through daily administration of the compounds to the animals combined with daily monitoring of the animals. The animals can also be monitored for two weeks to look for weight loss, as well as other common toxicities known to one skilled in the art, such as altered grooming, decreased movement of mice, and tremor. The compounds can also be tested for their ability to inhibit tumor growth in animals. SVR angiosarcoma tumor cells, for example, can be injected into animals, such as immunocompromised mice. Mice can be injected with approximately one million SVR cells subcutaneously, and when tumors become palpable, can be treated with a beginning dose (such as 120 mg/kg intraperitoneally) once daily. Drugs that are active at 120 mg/kg can then be retested at lower doses of 80 mg/kg, 40 mg/kg, etc. Tumor volume can be calculated using the formula (w2×L)0.52, where w (width) represents the smallest dimension of the tumor. Mice can be treated for a period of time such as approximately 30 days, or until tumor growth reaches 1 cm^3.

cytotoxicity assay (MTT) [3] = assay type: cell-based; settings: for EC50 at 3 days: African green monkey; for EC50 at 4 days: human
Procedure: (§1) The cytotoxicity of the honokiol and analogues thereof were assessed in human PBM, CEM and Vero cells (Table 4). Compounds can be evaluated for their potential toxic effects on uninfected human PBM cells, in CEM (T-lymphoblastoid cell line obtained from American Type Culture Collection, Rockville, Md.) and Vero (African green monkey kidney) cells. PBM cells can be obtained from whole blood of healthy seronegative donors (HIV-1) by single-step Ficoll-Hypaque discontinous gradient centrifugation. […] All of the cells can be plated in 96-well cell culture plates containing ten-fold serial dilutions of the test drug. […] At the end of incubation, MTT tetrazolium dye solution (Cell titer 96®, Promega, Madison, Wis.) can be added to each well and incubated overnight. The reaction can be stopped with stop solubilization solution (Promega, Madison, Wis.). […] The plates can be read at a wavelength of 570 nm using an ELISA plate reader (Bio-tek instruments, Inc., Winooski, Vt., Model #EL 312e). The 50% inhibition concentration (IC50) can be determined from the concentration-response curve using the median effect method.

cytotoxicity assay (MTT) [4] = assay type: cell-based, human; settings: human
Procedure: as §1

HIV-1 = assay: HIV assay in PBM cells (RT activity); assay type: cell-based; settings: Human immunodeficiency virus 1, PBMC, HIV-1 in human PBM cells; for EC50: read-out: Activity anti-VIH-1 on PBM cells EC50; for EC90: read-out: Activity anti-VIH-1 on PBM cells EC90
Procedure: The antiviral activity of the synthesized compounds and honokiol were evaluated against HIV-1 in human peripheral blood mononuclear (PBM) cells (Table 4).
Human peripheral blood mononuclear (PBM) cells (which can be obtained from Atlanta Red Cross) can be isolated by Ficoll-Hypaque discontinuous gradient centrifugation from healthy seronegative donors. Cells can be stimulated with phytohemagglutinin A (Difco, Sparks, Md.) for 2-3 days prior to use. HIV-1, such as HIV-1LAI can be obtained from the Centers for Disease Control and Prevention (Atlanta, Ga.), and can be used as the standard reference virus for the antiviral assays. The molecular infectious clones HIV-1xxBru and HIV-1M184Vpin can be obtained from Dr. John Mellors (University of Pittsburgh). Infections can be done in bulk for one hour, either with 100 TCID50/1×10^7 cells for a flask (T25) assay or with 200 TCID50/6×10^5 cells/well for a 24 well plate assay. Cells can be added to a plate or flask containing a ten-fold serial dilution of the test compound. Assay medium can be RPMI-1640 supplemented with heat inactivated 16% fetal bovine serum, 1.6 mM L-glutamine, 80 IU/ml penicillin, 80 μg/ml streptomycin, 0.0008% DEAE-Dextran, 0.045% sodium bicarbonate, and 26 IU/ml recombinant interleukin-2 (Chiron Corp, Emeryville, Calif.). AZT can be used as a positive control for the assay. Untreated and uninfected PBM cells can be grown in parallel at equivalent cell concentrations as controls. The cell cultures can be maintained in a humidified 5% CO2-air at 37° C. for 5 days and supernatants can be collected for reverse transcriptase (RT) activity.
Supernatants can be centrifuged at 12,000 rpm for 2 hours to pellet the virus. The pellet can be solubilized with vortexing in 100 μl virus solubilization buffer (VSB) containing 0.5% Triton X-100, 0.8 M NaCl, 0.5 mM phenylmethylsulfonyl fluoride, 20% glycerol, and 0.05 M Tris, pH 7.8. Ten μL of each sample can be added to 75 μL RT reaction mixture (0.06 M Tris, pH 7.8, 0.012 M MgCl2, 0.006 M dithiothreitol, 0.006 mg/ml poly (rA)n, oligo (dT)12-18, 96 μg/ml dATP, and 1 μM of 0.08 mCi/ml ^3H-thymidine triphosphate (Moravek Biochemicals, Brea, Calif.) and can be incubated at 37° C. for 2 hours. The reaction can be stopped by the addition of 100 μL 10% trichloroacetic acid containing 0.05% sodium pyrophosphate. The acid insoluble product can be harvested onto filter paper using a Packard Harvester (Meriden, Conn.), and the RT activity can be read on a Packard Direct Beta Counter (Meriden, Conn.). The RT results can be expressed in counts per minute (CPM) per milliliter. The antiviral 50% effective concentration (EC50) and 90% effective concentration (EC90) can be determined from the concentration-response curve using the median effect method (Belen'kii, S. M.; Schinazi, R. S. Multiple drug effect analysis with confidence interval. Antiviral. Res. 1994, 25, 1-11).

[5] = Vero kidney cells, Vero cells, read-out: Cytotoxicity (EC50-μM) in: VERO
[6] = CEM T-lymphoblastoid cells, CEM cells, read-out: Cytotoxicity (EC50-μM) in: CEM
[7] = uninfected PBM cells, read-out: Cytotoxicity (EC50-μM) in: PBM
[8] = Vero cells, read-out: Cytotoxicity (EC50-μM) in: VERO
[9] = CEM cells, read-out: Cytotoxicity (EC50-μM) in: CEM

Compound	inhibition at 10 µg/mL [1] [%]	inhibition at 15 µg/mL [1] [%]	also measured
C=CCc1cccc(-c2cccc(CC=C)c2O)c1O [drawing 50]	40.8	57.2	–
C=CCc1ccc(O)c(CC=C)c1O	37.2	36	–
C=CCc1cc(-c2cccc(CC=C)c2O)ccc1O	74.2	81.6	–
C=CCOc1ccc(/C=C/C(=O)CC(=O)/C=C/c2ccc(O)c(OC)c2)cc1OC	75.2	78.8	–
O=C(/C=C/c1ccccc1)Oc1cc(OC(=O)/C=C/c2ccccc2)cc(OC(=O)/C=C/c2ccccc2)c1	13.4	8.6	–
CCCc1ccc(O)c(-c2ccc(O)c(CCC)c2)c1 [drawing 49]	79.2	89.6	–
C=CCC1=C(CC=C)C(=O)c2ccccc2C1=O	87.5	91.5	Toxicity [2]: Toxic
C=CCc1ccc2c(c1)-c1cc(CC=C)ccc1OC(C)(C)O2 [drawing 42]	–	–	EC50 at 3 days (cytotoxicity assay (MTT) [3]; [5]): > 100 µM; EC50 at 4 days (cytotoxicity assay (MTT) [3]; [6]): 11.6 µM; EC50 at 5 days (cytotoxicity assay (MTT) [4]; [7]): 75.3 µM; EC50 (HIV-1): 13.6 µM; EC90 (HIV-1): 43.3 µM
C=CCOc1cc2c(cc1OCC=C)C1c3ccc(OCC=C)c(OCC=C)c3OCC1(O)C2 (stereo not drawn)	13.8	41.8	–
C=CCOc1ccc(/C=C/C(=O)CC(=O)/C=C/c2ccc(OCC=C)c(OC)c2)cc1OC	70	67.9	–
O=C(CCc1ccccc1)Oc1cc(OC(=O)CCc2ccccc2)cc(OC(=O)CCc2ccccc2)c1	5	25	–
C=CCc1ccc(O)c(-c2ccc(O)c(CC=C)c2)c1 [drawing 48]	59.9	85	–
C=CCc1cc(C(=C(Cl)Cl)c2ccc(O)c(CC=C)c2)ccc1O	53.6	75.6	–
C=CCc1cc(C(c2ccc(O)c(CC=C)c2)c2ccccn2)ccc1O	25.2	46.1	–
C=CCc1ccc(OC)c(-c2ccc(OC)c(CC=C)c2)c1 [drawing 45]	–	–	EC50 at 3 days (cytotoxicity assay (MTT) [3]; [5]): > 100 µM; EC50 at 4 days (cytotoxicity assay (MTT) [3]; [6]): 19.1 µM; EC50 at 5 days (cytotoxicity assay (MTT) [4]; [7]): > 100 µM; EC50 (HIV-1): 54.3 µM; EC90 (HIV-1): > 100 µM
C=CCc1ccc(OS(=O)(=O)c2ccccc2)c(-c2ccc(OS(=O)(=O)c3ccccc3)c(CC=C)c2)c1	35.3	37.9	–

Compound	inhibition at 10 µg/mL [1] [%]	inhibition at 15 µg/mL [1] [%]	also measured
C=CCc1cc(/C(CC)=C(\CC)c2ccc(O)c(CC=C)c2)ccc1O	68.4	89.3	Toxicity [2]: Toxic
CCCc1ccc(O)c(-c2ccc(O)c(CCC)c2)c1 [drawing 44]	–	–	EC50 at 3 days (cytotoxicity assay (MTT) [3]; [5]): 19.8 µM; EC50 at 4 days (cytotoxicity assay (MTT) [3]; [6]): 10.4 µM; EC50 at 5 days (cytotoxicity assay (MTT) [4]; [7]): 45.9 µM; EC50 (HIV-1): 16.9 µM; EC90 (HIV-1): 69.4 µM
C=CCc1cc(-c2ccc(O)c(CC=C)c2)ccc1O [drawing 47]	–	–	EC50 at 3 days (cytotoxicity assay (MTT) [3]; [8]): 33.2 µM; EC50 at 4 days (cytotoxicity assay (MTT) [3]; [9]): 23 µM; EC50 at 5 days (cytotoxicity assay (MTT) [4]; [7]): > 100 µM; EC50 (HIV-1): 19.4 µM; EC90 (HIV-1): 66.4 µM
C=CCc1ccc2c(c1)-c1cc(CC=C)ccc1OC(C)(C)O2 [drawing 54]	61.9	59.7	–
C=CCc1cccc(-c2ccccc2O)c1O	47.1	59.3	–
C=CCc1cc2c3ccccc3n(CC=C)c2cc1O	68.9	76.1	–
C=CCc1ccc(O)c(-c2cc(CC=C)ccc2O)c1	–	–	EC50 at 3 days (cytotoxicity assay (MTT) [3]; [8]): 79.9 µM; EC50 at 4 days (cytotoxicity assay (MTT) [3]; [9]): 99.6 µM; EC50 at 5 days (cytotoxicity assay (MTT) [4]; [7]): 38.6 µM; EC50 (HIV-1): 69.3 µM; EC90 (HIV-1): > 100 µM
C=CCc1cc(-c2ncc(O)cn2)ccc1O	4.4	10	–
C=CCc1cccc(-c2cccc(CC=C)c2O)c1O [drawing 46]	–	–	EC50 at 3 days (cytotoxicity assay (MTT) [3]; [5]): > 100 µM; EC50 at 4 days (cytotoxicity assay (MTT) [3]; [6]): > 100 µM; EC50 at 5 days (cytotoxicity assay (MTT) [4]; [7]): > 100 µM; EC50 (HIV-1): 34.8 µM; EC90 (HIV-1): 63 µM
C=CCc1c(O)ccc2c3ccccc3n(CC=C)c12	69.7	78.7	–
C=CCc1cc(-c2ccc(O)c(CC=C)c2)ccc1O [drawing 56]	44.9	56.2	Toxicity [2]: Toxic
C=CCc1ccc(O)c(-c2ccc(O)c(CC=C)c2)c1 [drawing 43]	–	–	EC50 at 3 days (cytotoxicity assay (MTT) [3]): 22.5 µM; EC50 at 4 days (cytotoxicity assay (MTT) [3]): 10.9 µM; EC50 at 5 days (cytotoxicity assay (MTT) [4]): 16.1 µM; EC50 (HIV-1): 3.3 µM; EC90 (HIV-1): 22.7 µM
C=CCc1cc(Cc2ccc(O)c(CC=C)c2)ccc1O	75.5	73.7	Toxicity [2]: Toxic
C=CCc1ccc(OC)c(-c2ccc(OC)c(CC=C)c2)c1 [drawing 55]	40.6	47.2	–
C=CCc1cc(C(C)(C)c2ccc(O)c(CC=C)c2)ccc1O	32.9	57.1	–
